Measurements taken from publication PMC3445516 (PLoS ONE, 2012).
Like-named read-outs stand apart in the source and are kept apart here.

Tests used:
Test in all cases: Ambit kinase profiling, competition binding
EPHA6 = molecular target: T1, EPHA6 (Homo sapiens, UniProt Q9UF33)
T1 construct: purchased Ambit Biosciences (KINOMEscan)
T1 sequence (Q9UF33 23-1036): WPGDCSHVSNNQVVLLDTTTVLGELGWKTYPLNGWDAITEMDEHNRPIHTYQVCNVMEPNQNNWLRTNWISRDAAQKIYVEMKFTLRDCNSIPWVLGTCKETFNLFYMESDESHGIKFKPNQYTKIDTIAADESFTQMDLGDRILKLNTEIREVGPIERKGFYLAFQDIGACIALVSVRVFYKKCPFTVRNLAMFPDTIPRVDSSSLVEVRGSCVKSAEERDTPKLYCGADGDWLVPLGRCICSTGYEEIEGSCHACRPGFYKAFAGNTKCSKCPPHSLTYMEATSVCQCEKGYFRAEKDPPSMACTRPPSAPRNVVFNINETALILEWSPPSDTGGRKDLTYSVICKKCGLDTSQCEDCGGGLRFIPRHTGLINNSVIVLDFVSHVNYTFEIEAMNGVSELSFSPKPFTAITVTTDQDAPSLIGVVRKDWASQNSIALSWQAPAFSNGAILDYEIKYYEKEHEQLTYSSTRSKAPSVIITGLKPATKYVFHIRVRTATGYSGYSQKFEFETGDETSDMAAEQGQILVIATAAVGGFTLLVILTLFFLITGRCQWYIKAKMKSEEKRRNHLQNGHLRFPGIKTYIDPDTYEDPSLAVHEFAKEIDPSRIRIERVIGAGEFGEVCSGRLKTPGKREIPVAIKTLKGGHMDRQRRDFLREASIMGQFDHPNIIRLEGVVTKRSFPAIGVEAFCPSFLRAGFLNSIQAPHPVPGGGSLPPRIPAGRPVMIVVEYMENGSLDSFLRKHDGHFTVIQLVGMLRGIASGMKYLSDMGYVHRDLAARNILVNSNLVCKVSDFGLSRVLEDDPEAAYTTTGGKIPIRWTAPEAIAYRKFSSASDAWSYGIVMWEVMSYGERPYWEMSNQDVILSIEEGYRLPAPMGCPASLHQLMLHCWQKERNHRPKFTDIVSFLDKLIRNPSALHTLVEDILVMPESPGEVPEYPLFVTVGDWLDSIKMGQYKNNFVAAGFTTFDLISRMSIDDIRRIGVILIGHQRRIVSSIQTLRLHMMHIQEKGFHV
Procedure: (§1) Also included in the kinase profile are four isoforms of PKC (δ, ε, η, θ) and eight isoforms of CAMKs (CAMKIα, δ, γ; CAMKIIα, β, δ, γ; CAMK4).
(§2) The global kinase profiling experiment was performed by Ambit Biosciences.

CSNK1A1L = molecular target: T2, CSNK1A1L (Homo sapiens, UniProt Q8N752)
T2 construct: purchased Ambit Biosciences (KINOMEscan)
T2 sequence (Q8N752 1-337): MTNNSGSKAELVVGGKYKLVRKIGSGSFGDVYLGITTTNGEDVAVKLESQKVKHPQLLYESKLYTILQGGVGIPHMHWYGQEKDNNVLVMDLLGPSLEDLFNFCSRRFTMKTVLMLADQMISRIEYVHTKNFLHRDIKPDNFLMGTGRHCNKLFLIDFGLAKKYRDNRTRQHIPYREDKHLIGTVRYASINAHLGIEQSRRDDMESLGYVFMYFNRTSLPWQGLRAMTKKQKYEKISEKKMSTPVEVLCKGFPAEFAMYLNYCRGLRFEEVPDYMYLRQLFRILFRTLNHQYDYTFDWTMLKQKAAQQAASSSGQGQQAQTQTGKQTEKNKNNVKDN
Procedure: as §1, §2

GSK3B = molecular target: T3, GSK3B (Homo sapiens, UniProt P49841)
T3 construct: purchased Ambit Biosciences (KINOMEscan)
Procedure: as §1, §2

MRCKB = molecular target: T4, MRCKB (Homo sapiens, UniProt Q9Y5S2)
T4 construct: purchased Ambit Biosciences (KINOMEscan)
Procedure: as §1, §2

TAOK1 = molecular target: T5, TAOK1 (Homo sapiens, UniProt Q7L7X3)
T5 construct: purchased Ambit Biosciences (KINOMEscan)
T5 sequence (Q7L7X3 1-1001): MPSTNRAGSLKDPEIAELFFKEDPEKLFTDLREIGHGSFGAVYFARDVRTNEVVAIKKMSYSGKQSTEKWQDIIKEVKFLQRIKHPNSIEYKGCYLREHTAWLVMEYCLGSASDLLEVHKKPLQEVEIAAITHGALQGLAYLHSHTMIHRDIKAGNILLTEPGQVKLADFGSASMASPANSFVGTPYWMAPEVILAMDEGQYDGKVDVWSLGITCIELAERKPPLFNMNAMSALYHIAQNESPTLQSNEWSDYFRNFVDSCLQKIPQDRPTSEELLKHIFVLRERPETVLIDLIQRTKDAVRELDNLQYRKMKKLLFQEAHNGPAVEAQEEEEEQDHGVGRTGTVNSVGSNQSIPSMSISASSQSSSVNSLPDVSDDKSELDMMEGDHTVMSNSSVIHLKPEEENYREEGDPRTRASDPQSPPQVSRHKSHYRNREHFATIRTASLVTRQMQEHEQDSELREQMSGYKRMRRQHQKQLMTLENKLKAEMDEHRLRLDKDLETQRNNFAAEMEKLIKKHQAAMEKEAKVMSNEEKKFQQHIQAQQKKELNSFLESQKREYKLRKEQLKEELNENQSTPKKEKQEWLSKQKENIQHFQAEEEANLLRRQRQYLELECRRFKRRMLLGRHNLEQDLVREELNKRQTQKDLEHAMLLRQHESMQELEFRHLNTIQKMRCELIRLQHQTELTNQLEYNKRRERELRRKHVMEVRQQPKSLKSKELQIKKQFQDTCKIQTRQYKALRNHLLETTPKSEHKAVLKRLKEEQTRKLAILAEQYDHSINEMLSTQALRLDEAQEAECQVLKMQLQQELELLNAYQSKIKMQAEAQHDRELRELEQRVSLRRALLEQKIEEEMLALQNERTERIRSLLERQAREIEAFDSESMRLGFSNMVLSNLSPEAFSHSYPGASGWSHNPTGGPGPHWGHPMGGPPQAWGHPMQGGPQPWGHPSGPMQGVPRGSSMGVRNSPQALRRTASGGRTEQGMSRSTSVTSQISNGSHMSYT
Procedure: as §1, §2

T4 sequence (Q9Y5S2 whole entry): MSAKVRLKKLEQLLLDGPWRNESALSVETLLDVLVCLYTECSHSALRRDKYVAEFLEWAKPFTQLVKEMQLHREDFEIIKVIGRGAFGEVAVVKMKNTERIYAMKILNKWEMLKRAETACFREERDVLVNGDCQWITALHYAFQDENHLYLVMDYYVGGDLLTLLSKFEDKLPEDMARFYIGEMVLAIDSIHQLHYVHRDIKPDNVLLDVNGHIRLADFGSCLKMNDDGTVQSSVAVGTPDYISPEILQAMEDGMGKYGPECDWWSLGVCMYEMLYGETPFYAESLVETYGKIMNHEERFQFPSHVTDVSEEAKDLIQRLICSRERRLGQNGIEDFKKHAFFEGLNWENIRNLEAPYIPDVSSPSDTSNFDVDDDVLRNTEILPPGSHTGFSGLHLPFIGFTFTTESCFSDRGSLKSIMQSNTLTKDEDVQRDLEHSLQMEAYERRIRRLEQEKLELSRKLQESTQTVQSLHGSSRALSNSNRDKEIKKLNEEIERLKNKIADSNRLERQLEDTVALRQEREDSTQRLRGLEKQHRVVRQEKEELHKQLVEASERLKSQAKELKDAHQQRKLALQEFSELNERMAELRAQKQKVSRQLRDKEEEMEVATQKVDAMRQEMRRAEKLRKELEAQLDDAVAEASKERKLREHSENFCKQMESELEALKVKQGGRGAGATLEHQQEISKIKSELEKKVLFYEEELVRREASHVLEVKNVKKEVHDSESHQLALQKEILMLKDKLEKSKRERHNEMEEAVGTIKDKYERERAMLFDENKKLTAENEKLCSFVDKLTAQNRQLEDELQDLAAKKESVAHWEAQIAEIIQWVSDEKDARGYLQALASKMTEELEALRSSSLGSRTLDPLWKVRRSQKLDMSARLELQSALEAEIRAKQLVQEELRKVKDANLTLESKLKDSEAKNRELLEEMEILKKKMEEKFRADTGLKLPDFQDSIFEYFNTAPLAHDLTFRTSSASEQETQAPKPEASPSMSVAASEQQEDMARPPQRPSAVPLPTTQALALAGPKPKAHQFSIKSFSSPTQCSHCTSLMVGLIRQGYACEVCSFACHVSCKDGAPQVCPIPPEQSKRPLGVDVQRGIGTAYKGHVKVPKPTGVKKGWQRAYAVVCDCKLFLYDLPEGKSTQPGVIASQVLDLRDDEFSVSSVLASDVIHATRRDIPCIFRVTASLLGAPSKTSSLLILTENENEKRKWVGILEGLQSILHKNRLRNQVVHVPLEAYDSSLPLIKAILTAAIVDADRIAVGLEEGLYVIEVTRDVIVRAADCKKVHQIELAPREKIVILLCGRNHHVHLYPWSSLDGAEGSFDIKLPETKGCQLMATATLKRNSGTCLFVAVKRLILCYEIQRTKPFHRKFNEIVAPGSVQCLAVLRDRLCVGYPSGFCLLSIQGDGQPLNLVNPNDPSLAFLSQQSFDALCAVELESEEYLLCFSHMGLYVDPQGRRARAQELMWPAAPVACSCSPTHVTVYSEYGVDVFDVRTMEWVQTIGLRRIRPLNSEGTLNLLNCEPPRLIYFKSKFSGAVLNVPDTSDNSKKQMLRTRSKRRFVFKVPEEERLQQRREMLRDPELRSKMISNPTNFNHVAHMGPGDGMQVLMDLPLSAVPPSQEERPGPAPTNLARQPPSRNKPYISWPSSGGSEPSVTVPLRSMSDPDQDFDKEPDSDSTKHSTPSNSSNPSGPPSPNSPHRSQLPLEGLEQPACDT
T3 sequence (P49841 whole entry): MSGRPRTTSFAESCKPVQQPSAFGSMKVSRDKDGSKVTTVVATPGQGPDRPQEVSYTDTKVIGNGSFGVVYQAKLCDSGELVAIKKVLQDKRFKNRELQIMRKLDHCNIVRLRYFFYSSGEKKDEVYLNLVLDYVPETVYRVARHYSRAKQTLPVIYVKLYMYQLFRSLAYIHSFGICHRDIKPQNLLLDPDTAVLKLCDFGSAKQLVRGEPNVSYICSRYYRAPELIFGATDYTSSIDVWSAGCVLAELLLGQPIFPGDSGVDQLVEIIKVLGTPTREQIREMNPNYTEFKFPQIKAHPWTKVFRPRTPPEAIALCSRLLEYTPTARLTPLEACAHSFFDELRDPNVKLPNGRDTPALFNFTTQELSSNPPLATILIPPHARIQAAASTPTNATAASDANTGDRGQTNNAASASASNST

## Fc1ccc(-c2c(-c3ccncc3)[nH]c3nccnc23)cc1 [Compound 122]
EPHA6; EPHA6, 10 µM, read-out: % Competition
  inhibition at 10 µM: 93%
CSNK1A1L; CSNK1A1L, 10 µM, read-out: % Competition
  inhibition at 10 µM: 95%
GSK3B; GSK3B, 10 µM, read-out: % Competition
  inhibition at 10 µM: 96%
MRCKB; MRCKB, 10 µM, read-out: % Competition
  inhibition at 10 µM: 98%
TAOK1; TAOK1, 10 µM, read-out: % Competition
  inhibition at 10 µM: 99%

## CC(O)CNc1cc(-c2[nH]c3cccnc3c2-c2ccc(F)cc2)ccn1 (stereo not drawn) [Compound 140]
EPHA6; read-out: % Competition
  inhibition at 10 µM: < 50%
CSNK1A1L; read-out: % Competition
  inhibition at 10 µM: 86%
GSK3B; read-out: % Competition
  inhibition at 10 µM: < 50%
MRCKB; read-out: % Competition
  inhibition at 10 µM: < 50%
TAOK1; read-out: % Competition
  inhibition at 10 µM: 67%

## Fc1ccc(-c2c(-c3ccncc3)[nH]c3nccnc23)cc1 [RO1155697-000-005]
EPHA6; EPHA6, compound concentration 10 uM, read-out: Percent Competition
  inhibition at 10 µM: 93%
CSNK1A1L; CSNK1A1L, compound concentration 10 uM, read-out: Percent Competition
  inhibition at 10 µM: 95%
GSK3B; GSK3B, compound concentration 10 uM, read-out: Percent Competition
  inhibition at 10 µM: 96%
MRCKB; MRCKB, compound concentration 10 uM, read-out: Percent Competition
  inhibition at 10 µM: 98%
TAOK1; TAOK1, compound concentration 10 uM, read-out: Percent Competition
  inhibition at 10 µM: 99%
